SMILES strings stand for the structures. Values joined by “and” are separate entries in the source; they are usually repeats but may differ in a detail not shown here. Equal values may be shown once. Toxic doses and inconclusive results are not listed.

This is an account of results in PubChem BioAssay AID330 (DTP/NCI, 2004).

This assay concerns P388 leukemia ip, CD2F1 mice, survival T/C. Put plainly: NCI In Vivo Anticancer Drug Screen. Data for tumor model P388 Leukemia (intraperitoneal) in CD2F1 (CDF1) mice. To be noted: endpoint: median survival time, higher = longer survival. The procedure, abridged: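 Mice carrying the transplanted tumor received test compound or vehicle. Survival was recorded in each group, and the value is the treated-group measurement divided by that of the vehicle-treated control group.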

The mark [1] stands for this setting: dose: 100.0 mg/kg/injection, schedule: Q01DX001 (ip), vehicle: Klucel (hydroxypropylcellulose) (HPC).
[2] abbreviates: dose: 60.0 mg/kg/injection, schedule: Q01DX005 (ip), vehicle: saline with Tween-80.
[3] abbreviates: dose: 120.0 mg/kg/injection, schedule: Q01DX005 (ip), vehicle: saline with Tween-80.
[4] abbreviates: dose: 240.0 mg/kg/injection, schedule: Q01DX005 (ip), vehicle: saline with Tween-80.
The mark [5] stands for this setting: dose: 50.0 mg/kg/injection, schedule: Q01DX009 (ip), vehicle: Klucel (hydroxypropylcellulose) (HPC).
Setting [6] is: dose: 100.0 mg/kg/injection, schedule: Q01DX009 (ip), vehicle: Klucel (hydroxypropylcellulose) (HPC).
Setting [7] is: dose: 200.0 mg/kg/injection, schedule: Q01DX009 (ip), vehicle: Klucel (hydroxypropylcellulose) (HPC).
Where [8] appears, read: dose: 60.0 mg/kg/injection, schedule: Q01DX005 (ip), vehicle: saline.
Where [9] appears, read: dose: 120.0 mg/kg/injection, schedule: Q01DX005 (ip), vehicle: saline.
The mark [10] stands for this setting: dose: 240.0 mg/kg/injection, schedule: Q01DX005 (ip), vehicle: saline.
Setting [11] is: dose: 12.5 mg/kg/injection, schedule: Q01DX009 (ip), vehicle: saline.
The mark [12] stands for this setting: dose: 25.0 mg/kg/injection, schedule: Q01DX009 (ip), vehicle: saline.
The mark [13] stands for this setting: dose: 50.0 mg/kg/injection, schedule: Q01DX005 (ip), vehicle: saline with Tween-80.
Where [14] appears, read: dose: 50.0 mg/kg/injection, schedule: Q01DX009 (ip), vehicle: saline with Tween-80.
Where [15] appears, read: dose: 50.0 mg/kg/injection, schedule: Q01DX009 (ip), vehicle: saline.
Where [16] appears, read: dose: 100.0 mg/kg/injection, schedule: Q01DX005 (ip), vehicle: saline with Tween-80.
The mark [17] stands for this setting: dose: 100.0 mg/kg/injection, schedule: Q01DX009 (ip), vehicle: saline with Tween-80.
[18] abbreviates: dose: 200.0 mg/kg/injection, schedule: Q01DX009 (ip), vehicle: saline with Tween-80.
Where [19] appears, read: dose: 200.0 mg/kg/injection, schedule: Q01DX005 (ip), vehicle: saline with Tween-80.

In the case of `O=C(O)CCC1CC(=O)OC1c1ccccc1` (stereo not drawn), the T/C runs as follows: under setting [1], 94 % of control; (dose: 200.0 mg/kg/injection, schedule: Q01DX001 (ip), vehicle: Klucel (hydroxypropylcellulose) (HPC)) 94 % of control; (dose: 400.0 mg/kg/injection, schedule: Q01DX001 (ip), vehicle: Klucel (hydroxypropylcellulose) (HPC)) 94 % of control.
With `N[C@@H](C[C@H]1CCC(=O)[C@@H]2O[C@H]12)C(=O)O`, the T/C (dose: 100.0 mg/kg/injection, schedule: Q04DX002 (ip), vehicle: saline) is 100 % of control; the T/C (dose: 200.0 mg/kg/injection, schedule: Q04DX002 (ip), vehicle: saline) was 98 % of control; the T/C (dose: 400.0 mg/kg/injection, schedule: Q04DX002 (ip), vehicle: saline) is 108 % of control; the T/C (dose: 600.0 mg/kg/injection, schedule: Q04DX002 (ip), vehicle: saline) was 112 % of control.
As for `Cc1cc2c(cc1C)NC1=C(N2)OC(c2ccc(Cl)cc2)C1=O` (stereo not drawn), the T/C reads like this: under setting [2], 92 % of control; under setting [3], 89 % of control; under setting [4], 92 % of control.
Regarding `O=C(Nc1ccccc1F)N(CCO)C1CCCCC1`, the T/C under setting [2] is 93 % of control, the T/C under setting [3] was 93 % of control and the T/C under setting [4] was 98 % of control.
For `CCCCCC(=O)C(=O)c1ccc(O)cc1O`, the T/C was 89 % of control under setting [5], 109 % of control under setting [6] and 100 % of control under setting [7].
With `C=C1C(=O)OC2C3OC(C)(CCC(O)C3COC(C)=O)CC(OC(=O)/C(=C/C)COC(C)=O)C12` (stereo not drawn), the T/C by setting is: (dose: 0.75 mg/kg/injection, schedule: Q01DX009 (ip), vehicle: saline) 116 % of control and 118 % of control; (dose: 0.78 mg/kg/injection, schedule: Q01DX009 (ip), vehicle: Klucel (hydroxypropylcellulose) (HPC)) 99 % of control; (dose: 1.5 mg/kg/injection, schedule: Q01DX009 (ip), vehicle: saline) 100 % of control and 111 % of control; (dose: 1.56 mg/kg/injection, schedule: Q01DX009 (ip), vehicle: Klucel (hydroxypropylcellulose) (HPC)) 113 % of control; (dose: 3.0 mg/kg/injection, schedule: Q01DX009 (ip), vehicle: saline) 101 % of control and 106 % of control; (dose: 3.12 mg/kg/injection, schedule: Q01DX009 (ip), vehicle: Klucel (hydroxypropylcellulose) (HPC)) 105 % of control. In addition, the T/C (dose: 6.25 mg/kg/injection, schedule: Q01DX009 (ip), vehicle: Klucel (hydroxypropylcellulose) (HPC)) is 97 % of control.
For `CCOC(=O)c1ccc(N(CC(O)CN=[N+]=[N-])S(=O)(=O)c2ccc(C)cc2)cc1` (stereo not drawn), the T/C is, setting by setting: under setting [2], 112 % of control; under setting [3], 102 % of control; under setting [4], 96 % of control.
With `CS(=O)(=O)CC1=NC(=N)N=C1CS(C)(=O)=O`, the T/C reads like this: under setting [8], 100 % of control; under setting [9], 110 % of control; under setting [10], 96 % of control.
For the compound `COc1cc([C@@H]2c3cc4c(cc3[C@H](O)[C@@H](CO)[C@@H]2C(=O)O)OCO4)cc(OC)c1OC`, the T/C by setting is: (dose: 50.0 mg/kg/injection, schedule: Q01DX005 (ip), vehicle: saline) 90 % of control; (dose: 100.0 mg/kg/injection, schedule: Q01DX005 (ip), vehicle: saline) 94 % of control; (dose: 200.0 mg/kg/injection, schedule: Q01DX005 (ip), vehicle: saline) 93 % of control.
Consider `BrC[P+](CBr)(CBr)CBr`, for which the T/C under setting [11] was 151 % of control; the T/C under setting [12] was 150 % of control; the T/C under setting [13] was 114 % of control and 117 % of control; the T/C under setting [14] was 151 % of control; the T/C under setting [15] was 163 % of control; the T/C under setting [16] is 123 % of control. Besides, the T/C under setting [17] is 157 % of control.
In the case of `OC1(C#Cc2ccccc2)c2ccccc2C(O)(C#Cc2ccccc2)c2c(C#Cc3ccccc3)cccc21` (stereo not drawn), the T/C (dose: 12.5 mg/kg/injection, schedule: Q01DX009 (ip), vehicle: saline with Tween-80) was 87 % of control; the T/C (dose: 25.0 mg/kg/injection, schedule: Q01DX009 (ip), vehicle: saline with Tween-80) was 95 % of control; the T/C under setting [14] is 97 % of control; the T/C under setting [18] is 86 % of control.
For `C1CCN(CCC[Si]23OCCN(CCO2)CCO3)C1`, the T/C by setting is: under setting [13], 108 % of control; under setting [16], 108 % of control; under setting [19], 109 % of control.
For the compound `CC1=CC(C)(C2(C)C=C(C)NC(=O)N2)NC(=O)N1` (stereo not drawn), the T/C by setting is: (dose: 25.0 mg/kg/injection, schedule: Q01DX001 (ip), vehicle: Klucel (hydroxypropylcellulose) (HPC)) 99 % of control; (dose: 50.0 mg/kg/injection, schedule: Q01DX001 (ip), vehicle: Klucel (hydroxypropylcellulose) (HPC)) 98 % of control; under setting [1], 99 % of control.
Take `CCCCCCCCCCCC(=O)OCCN(CCOC(=O)CCCCCCCCCCC)C(=O)c1ccccc1`: the T/C by setting is: under setting [14], 95 % of control; under setting [17], 100 % of control; under setting [18], 93 % of control.
Consider `O=C(NCc1ccccc1)c1ccc([N+](=O)[O-])cc1`, for which the T/C reads like this: under setting [14], 87 % of control; under setting [17], 95 % of control; under setting [18], 95 % of control; (dose: 400.0 mg/kg/injection, schedule: Q01DX009 (ip), vehicle: saline with Tween-80) 91 % of control.
As for `COc1ccc(CC(N)c2nn[nH]n2)cc1` (stereo not drawn), the T/C reads like this: under setting [14], 96 % of control; under setting [17], 98 % of control.
For the compound `COCC1OCCCO1`, the T/C under setting [8] is 102 % of control, the T/C under setting [9] is 98 % of control and the T/C under setting [10] was 97 % of control.
Turning to `CCOC(=O)/[C](=N\N=P(N(C)C)(N(C)C)N(C)C)[Hg]/[C](=N/N=P(N(C)C)(N(C)C)N(C)C)C(=O)OCC`, the T/C reads like this: (dose: 6.25 mg/kg/injection, schedule: Q01DX009 (ip), vehicle: saline) 101 % of control and 94 % of control; under setting [11], 99 % of control and 94 % of control; under setting [12], 103 % of control and 108 % of control; under setting [15], 106 % of control and 110 % of control.
Take `[C-]#[O+].[Cl][Ru]([Cl])([Cl])([Cl])[Cl]`: the T/C (dose: 12.5 mg/kg/injection, schedule: Q04DX003 (ip), vehicle: water) is 108 % of control; the T/C (dose: 25.0 mg/kg/injection, schedule: Q04DX003 (ip), vehicle: water) was 96 % of control; the T/C (dose: 50.0 mg/kg/injection, schedule: Q04DX003 (ip), vehicle: water) was 105 % of control.
Turning to `NC(=O)c1ncn(C2OC(CO)C(O)C2O)c1O` (stereo not drawn), the T/C is 107 % of control (dose: 12.5 mg/kg/injection, schedule: Q01DX009 (ip), vehicle: Klucel (hydroxypropylcellulose) (HPC)); 113 % of control (dose: 25.0 mg/kg/injection, schedule: Q01DX009 (ip), vehicle: Klucel (hydroxypropylcellulose) (HPC)); 115 % of control under setting [5]; 113 % of control under setting [6]; 96 % of control under setting [7].
With `CC(C)NC(=O)OCc1c(COC(=O)NC(C)C)c2n(c1-c1ccc(Cl)c(Cl)c1)CCS2(=O)=O`, the T/C runs as follows: (dose: 25.0 mg/kg/injection, schedule: Q01DX005 (ip), vehicle: saline with Tween-80) 106 % of control; under setting [13], 97 % of control; under setting [16], 88 % of control; under setting [19], 86 % of control.
As for `CCCCCCCCCCCCCCC(Cl)C/[N+]([O-])=[N+](/[O-])CC(Cl)CCCCCCCCCCCCCC` (stereo not drawn), the T/C is 92 % of control (dose: 100.0 mg/kg/injection, schedule: Q04DX003 (ip), vehicle: saline); 92 % of control (dose: 200.0 mg/kg/injection, schedule: Q04DX003 (ip), vehicle: saline); 92 % of control (dose: 400.0 mg/kg/injection, schedule: Q04DX003 (ip), vehicle: saline).
Turning to `CCO/C=C1/N=C(c2ccc(OC)cc2OC)OC1=O`, the T/C is 95 % of control under setting [2], 104 % of control under setting [3] and 106 % of control under setting [4].
